Values of other authors in patent US11491230B2, “Medication” (priority 2015, dated 2022).

Columns and labels:
[1] = tested on: estrogen receptor-positive and estrogen receptor-negative breast cancer cell lines; conditions: inducing apoptosis in a concentration-dependent manner
[2] = tested on: nontumorigenic mammary cells
[3] = tested on: cannabinoid receptors
[4] = biological target: CB1 receptor (Homo sapiens, UniProt P21554)
[5] = not given; remark: listed apart in the source
[6] = tested on: PC-3; conditions: PC-3 (Ruiz et al. 1999)
[7] = biological target: T1, androgen receptor in the prostate gland (Homo sapiens, UniProt P10275)
T1 construct: host or cells: prostate gland
T1 sequence (P10275 1-920): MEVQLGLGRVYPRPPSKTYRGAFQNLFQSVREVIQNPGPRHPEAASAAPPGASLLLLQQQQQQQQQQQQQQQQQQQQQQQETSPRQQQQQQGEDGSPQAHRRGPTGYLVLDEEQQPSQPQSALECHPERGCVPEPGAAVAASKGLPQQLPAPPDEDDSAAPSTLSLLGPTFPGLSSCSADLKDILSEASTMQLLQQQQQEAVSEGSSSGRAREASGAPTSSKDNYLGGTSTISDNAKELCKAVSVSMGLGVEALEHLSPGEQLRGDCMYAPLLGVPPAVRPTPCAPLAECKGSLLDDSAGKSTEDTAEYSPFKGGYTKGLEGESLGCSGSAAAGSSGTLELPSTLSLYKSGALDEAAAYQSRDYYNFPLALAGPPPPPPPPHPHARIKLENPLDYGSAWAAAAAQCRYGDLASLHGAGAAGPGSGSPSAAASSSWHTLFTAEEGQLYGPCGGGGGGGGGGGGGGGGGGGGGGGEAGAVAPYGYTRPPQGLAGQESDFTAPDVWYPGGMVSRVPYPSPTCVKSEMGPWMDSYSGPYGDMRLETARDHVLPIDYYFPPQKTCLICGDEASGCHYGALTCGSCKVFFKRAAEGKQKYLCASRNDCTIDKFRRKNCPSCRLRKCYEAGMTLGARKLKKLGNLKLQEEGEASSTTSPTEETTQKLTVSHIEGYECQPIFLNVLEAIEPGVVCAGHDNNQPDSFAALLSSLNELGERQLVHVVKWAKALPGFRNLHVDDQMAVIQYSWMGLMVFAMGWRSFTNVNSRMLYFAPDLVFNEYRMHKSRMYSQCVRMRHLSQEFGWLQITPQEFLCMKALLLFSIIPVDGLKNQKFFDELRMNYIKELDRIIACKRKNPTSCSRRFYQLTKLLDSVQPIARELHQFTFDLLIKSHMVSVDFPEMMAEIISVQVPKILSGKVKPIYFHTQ

Chain of CB1 receptor (P21554 whole entry): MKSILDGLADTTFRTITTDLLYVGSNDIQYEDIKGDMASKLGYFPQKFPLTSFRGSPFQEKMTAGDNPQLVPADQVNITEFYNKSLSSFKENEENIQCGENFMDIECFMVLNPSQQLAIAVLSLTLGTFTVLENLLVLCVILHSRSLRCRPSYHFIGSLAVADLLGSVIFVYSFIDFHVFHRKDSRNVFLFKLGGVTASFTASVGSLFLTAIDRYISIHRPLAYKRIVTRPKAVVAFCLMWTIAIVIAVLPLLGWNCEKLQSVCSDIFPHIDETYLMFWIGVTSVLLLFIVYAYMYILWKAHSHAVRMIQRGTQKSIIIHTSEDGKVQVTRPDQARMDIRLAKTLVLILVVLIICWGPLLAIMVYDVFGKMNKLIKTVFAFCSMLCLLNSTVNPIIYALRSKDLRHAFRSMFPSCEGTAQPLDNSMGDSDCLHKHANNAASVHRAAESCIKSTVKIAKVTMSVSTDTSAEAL

Molecule: C=C(C)[C@@H]1CCC(C)=C[C@H]1c1c(O)cc(CCCCC)cc1O [CBD, Cannabidiol]
- survival of breast cancer cell lines [1]: inhibited the survival
- effect on nontumorigenic mammary cells [2]: little effect
- affinity to cannabinoid receptors [3]: low affinity

Molecule: CCCc1cc(O)c2c(c1)OC(C)(C)[C@@H]1CCC(C)=C[C@@H]21 [THCV, Tetrahydrocannabivarin]
- activity at CB1 receptor [4]: CB1 receptor antagonist

Molecule: vitamin E
- reduction in breast cancer incidence (pre-menopausal women with a family history of breast cancer, highest quantity of vitamin E consumed): 43%
- breast cancer risk reduction (women without a family history of breast cancer): 16%

Molecule: CCCCCc1cc(O)c2c(c1)OC(C)(C)[C@@H]1CCC(C)=C[C@@H]21 [THC, Tetrahydrocannabinol]
- pain sensitivity ([5]; cold-pressor test after administration, dronabinol oral capsules 10 mg or 20 mg): decreased pain sensitivity
- duration of effect ([5]; dronabinol versus smoked marijuana): lasted longer than smoked marijuana
- time until pain reduction effects were felt after administration ([5]; on the average): 180 min
- apoptosis [6]: causes apoptosis
- specific binding of dihydroxytestosterone to the androgen receptor [7]: inhibits specific binding
